For orientation: Ki means the equilibrium dissociation constant of an inhibitor or competing ligand from its target. Lower therefore signals a stronger hold on the target. As a reminder, the IC50 is the midpoint of a concentration-inhibition curve. The low end stands for inhibition by little substance, the high end for a need for much substance.

Where a chain is given by its changes, count along the chain named.

Drawing on US8466171B2, “Fused heterocyclic compounds useful as modulators of nuclear hormone receptor function” (Bristol-Myers Squibb Company, priority 2007, dated 2013), this text covers Ki and IC50 for ten compounds.

One assay addresses T1, wild type AR (Homo sapiens, UniProt P10275).
T1 sequence (P10275 1-920 Q868H): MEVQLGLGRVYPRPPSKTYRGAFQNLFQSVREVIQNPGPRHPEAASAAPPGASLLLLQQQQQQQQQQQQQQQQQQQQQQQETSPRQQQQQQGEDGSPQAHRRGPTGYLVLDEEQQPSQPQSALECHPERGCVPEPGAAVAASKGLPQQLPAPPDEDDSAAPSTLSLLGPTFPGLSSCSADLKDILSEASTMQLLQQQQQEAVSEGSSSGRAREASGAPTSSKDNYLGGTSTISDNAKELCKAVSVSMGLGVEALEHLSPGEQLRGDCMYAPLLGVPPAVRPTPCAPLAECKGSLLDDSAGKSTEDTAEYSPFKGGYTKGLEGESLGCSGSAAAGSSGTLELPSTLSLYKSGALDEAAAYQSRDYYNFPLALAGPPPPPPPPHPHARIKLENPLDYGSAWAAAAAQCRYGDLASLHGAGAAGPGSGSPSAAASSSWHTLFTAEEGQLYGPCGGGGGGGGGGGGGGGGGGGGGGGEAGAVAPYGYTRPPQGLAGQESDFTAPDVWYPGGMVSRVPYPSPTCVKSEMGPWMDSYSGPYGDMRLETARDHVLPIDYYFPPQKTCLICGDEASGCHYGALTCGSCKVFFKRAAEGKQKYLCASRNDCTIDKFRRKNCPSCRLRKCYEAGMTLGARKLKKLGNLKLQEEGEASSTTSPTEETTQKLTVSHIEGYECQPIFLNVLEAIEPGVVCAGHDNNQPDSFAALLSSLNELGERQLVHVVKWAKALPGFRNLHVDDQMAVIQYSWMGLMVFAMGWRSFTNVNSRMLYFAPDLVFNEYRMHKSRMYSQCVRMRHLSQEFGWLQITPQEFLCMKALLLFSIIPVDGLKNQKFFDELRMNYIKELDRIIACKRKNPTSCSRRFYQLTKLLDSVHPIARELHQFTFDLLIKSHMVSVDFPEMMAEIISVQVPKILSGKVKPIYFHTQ
Briefly: AR Binding Assay (whole cell, MDA-MB-453, competition with [3H]-DHT). The note with it: MDA-MB-453 cells, competition with 2 nM [3H]-DHT, Cheng-Prusoff. Here is the method:
For the whole cell binding assay, human breast adenocarcinoma MDA-MB-453 cells (American Type Culture Collection, Rockville, Md., ATCC #: HTB-131), expressing a functional endogenous wild type AR, are grown to near confluency in T-225 tissue culture flasks containing Dulbecco's Modified Eagle Medium (DMEM) (Mediatech CAT #45000-668) supplemented with 10% fetal bovine serum (FBS) (Invitrogen/GIBCO Life Science). In order to remove any endogenous ligand that might be complexed with the receptor in the cells, the tissue culture media is removed and the cells are incubated overnight at 37° C. in serum-free DMEM. The next day, cells are rinsed with magnesium and calcium free Phosphate Buffered Saline (PBS) (Invitrogen/GIBCO Life Science), harvested using Cell Stripper Buffer (Mediatech) and re-suspended in serum-free DMEM to achieve a final assay concentration of 4×10^5 cells/well of a 96-well assay plate. […] After the remaining media is removed, cells are washed three times with PBS and harvested onto UniFilter GF/B plates (PerkinElmer).
Two replicates are used for each sample. After 90 minutes at room temperature, cells are harvested by filtering through a GF/B filter plate (PerkinElmer) followed by washing with ice-cold 1×PBS (without calcium and magnesium) to remove unbound label. […] After correcting for non-specific binding, IC50 values are determined. The IC50 value is defined as the concentration of competing ligand needed to reduce specific binding by 50%. […] The Ki values are determined by application of the Cheng-Prusoff equation to the IC50 values where: […]
See e.g., D. Rodbard, Mathematics and Statistics of Ligand Assays: An Illustrated Guide: In: J. Langon and J. J. Clapp, eds., Ligand Assay, Masson Publishing U.S.A., Inc., New York, pp. 45-99 (1981).

The target in the next assay is T2, androgen receptor (AR) (Homo sapiens, UniProt P10275).
T2 sequence (P10275 1-920): T1 sequence (P10275 1-920 Q868H) with H868Q
Briefly: MDA-MB-453 Androgen Receptor Transactivation Assay. It is filed as cell-based. The note with it: MDA-MB-453 cells, PSA-Luc reporter, 3 nM DHT, 48 hour incubation. The text has this: Compounds can be tested in a cell based transactivation assay used to measure the antagonism of androgen receptor (AR) transcriptional activity. […] The human breast adenocarcinoma MDA-MB-453 cell line (American Type Culture Collection, Rockville, Md., ATCC#: HTB-131), expressing a functional endogenous wild type AR, was transiently transfected with a reporter plasmid and tested for AR dependent transactivation activity in the absence or presence of test compounds. The pGL3 PSA-Luc reporter plasmid is comprised of the cDNA for the firefly luciferase gene and the upstream promoter sequences containing the androgen response elements (AREs) of the prostate specific antigen (PSA). This plasmid functions as a reporter for the transcription-modulating activity of the AR. In order to detect antagonists, the transactivation assay is conducted in the presence of constant concentration of the natural AR hormone (DHT) to induce a defined reporter signal. Addition of increasing concentrations of the suspected antagonist will decrease the reporter signal (luciferase activity).
MDA-MB-453 and 22 RV1 cells were maintained in DMEM (Cellgro, Cat. #10-014-CM) or RPMI 1640 (Gibco Cat. #11875-085) respectively and supplemented with 10% FBS (Invitrogen/GIBCO Life Science). Cells were bulk transfected in flasks with 1.3 ug/ml pGL3 PSA-Luc plasmid by using the Lipofectamine 2000 Reagent (Invitrogen, Cat. #11668-019) and serum-free Opti-MEM I media (Invitrogen, Cat#31985-070) according to the manufacturer's optimized conditions. Transfection was conducted at 37° C. with 5% CO2 for 16-18 hours. Following transfection, cells are washed, treated with trypsin, counted, and seeded in a 96-well plate at 30,000 cells per well in DMEM containing 10% Charcoal/Dextran Treated Fetal Bovine Serum (Gibco Cat. #11054-020) for MDA-MB-453 cells or RPMI 1640 (Gibco Cat. #110835) containing 10% FBS (Invitrogen/GIBCO Life Science) for 22 RV1 cells.
Following transfection, cells were incubated in the absence (blank) or presence (control) of 3 nM DHT (Sigma, Cat. #A-8380) and in the presence or absence of the standard antiandrogen bicalutamide or test compounds ranging in concentrations from 10^−10 to 10^−5M. Duplicates were used for each sample. The compound dilutions were performed by the Tecan Genesis (Tecan, Triangle Park, N.C.). After a 48 hour incubation, luciferase activity was measured using the Steady-Glo Luciferase Assay System (Promega, Cat. #E2550) according to manufacturer's specifications and luminescence was measured on a Packard TopCount (PerkinElmer). For each luciferase sample reading, the percent control (in absence of compounds) was calculated as: % Control=100×[averagesample−averageblank]/[averagecontrol−averageblank] Data was plotted and the IC50 value was defined as the concentration of compound that inhibited 50% of the luciferase activity for the controls.

At wild type AR, `N#Cc1ccc(N2C[C@H]3[C@@H]4O[C@@H](C[C@H]4O)[C@H]3S2(=O)=O)cc1C(F)(F)F` (racemic) [Example 10ii, rac-4-((1R,2R,6R,7R,8S)-8-hydroxy-3,3-dioxido-10-oxa-3-thia-4-azatricyclo[5.2.1.0^2,6]dec-4-yl)-2-(trifluoromethyl)benzonitrile] yielded a Ki of 745 nM. The same compound returned an IC50 at androgen receptor (AR) of 7500 nM.

Turning to `N#Cc1ccc(N2C[C@@H]3[C@@H]([C@@H]4O[C@H]3C[C@@H]4O)S2(=O)=O)cc1C(F)(F)F` (single isomer, unassigned) [Example 38ii], on wild type AR, the Ki worked out at 10 nM. For the same compound, at androgen receptor (AR), inhibition was half-maximal at 141 nM (IC50).

In the case of `COC(=O)N[C@@H]1C[C@H]2O[C@@H]1[C@H]1[C@@H]2CN(c2ccc(C#N)c(C(F)(F)F)c2)S1(=O)=O` [Example 41i, methyl((1S,2R,6R,7R,9R)-4-(4-cyano-3-(trifluoromethyl)phenyl)-3,3-dioxido-10-oxa-3-thia-4-azatricyclo[5.2.1.0^2,6]dec-9-yl)carbamate], the inhibitory constant (Ki) at wild type AR was 354 nM. At androgen receptor (AR), this compound yielded an IC50 of 8250 nM.

`N#Cc1ccc(N2C[C@H]3[C@H]([C@H]4O[C@@H]3C[C@H]4F)S2(=O)=O)cc1C(F)(F)F` [Example 14, 4-((1S,2R,6R,7R,9R)-9-fluoro-3,3-dioxido-10-oxa-3-thia-4-azatricyclo[5.2.1.0^2,6]dec-4-yl)-2-(trifluoromethyl)benzonitrile]: the affinity at wild type AR corresponds to a Ki of 11 nM. Also, the IC50 on androgen receptor (AR) worked out at 144 nM.

As to `N#Cc1ccc(N2C[C@H]3[C@H]4O[C@H]([C@@H]5O[C@@H]54)[C@H]3S2(=O)=O)cc1C(F)(F)F` [Example 9, 4-((1R,2S,6S,7R,8R,10R)-3,3-dioxido-9,11-dioxa-3-thia-4-azatetracyclo[5.3.1.0^2,6.0^8,10]undec-4-yl)-2-(trifluoromethyl)benzonitrile], the inhibition constant Ki at wild type AR amounted to 92 nM. The compound also registered an IC50 against androgen receptor (AR) of 2640 nM.

Regarding `C[C@@]12C=C[C@@H](O1)[C@@H]1CN(c3ccc(C#N)c(C(F)(F)F)c3)S(=O)(=O)[C@@H]12` (racemic) [Example 21ii, rac-4-((1R,2R,6R,7S)-1-methyl-3,3-dioxido-10-oxa-3-thia-4-azatricyclo[5.2.1.0^2,6]dec-8-en-4-yl)-2-(trifluoromethyl)benzonitrile], the Ki on wild type AR is 145 nM. Further, the IC50 at androgen receptor (AR) was 1110 nM.

Take `C[C@]12C=C[C@H](O1)[C@@H]1[C@H]2CN(c2ccc(C#N)c(C(F)(F)F)c2)S1(=O)=O` (racemic) [Example 21i, rac-4-((1R,2R,6R,7S)-7-methyl-3,3-dioxido-10-oxa-3-thia-4-azatricyclo[5.2.1.0^2,6]dec-8-en-4-yl)-2-(trifluoromethyl)benzonitrile]: the affinity on wild type AR corresponds to a Ki of 173 nM. Moreover, the IC50 against androgen receptor (AR) worked out at 1160 nM.

Take `N#Cc1ccc(N2C[C@@H]3[C@@H]4O[C@@H](C[C@@H]4O)[C@@H]3S2(=O)=O)cc1C(F)(F)F` (single isomer, unassigned) [Example 37i]: on wild type AR, the Ki is 10 nM. The compound further gave an IC50 at androgen receptor (AR) of 154 nM.

`C[C@]12[C@H](CN(c3ccc(C#N)c(C(F)(F)F)c3)S1(=O)=O)[C@@H]1C=C[C@H]2O1` [Example 4, 4-((1R,2R,6R,7S)-2-methyl-3,3-dioxido-10-oxa-3-thia-4-azatricyclo[5.2.1.0^2,6]dec-8-en-4-yl)-2-(trifluoromethyl)benzonitrile] displayed a Ki on wild type AR of 221 nM. Further, on androgen receptor (AR), the IC50 was 1420 nM.

In turn, `COC(=O)N[C@H]1C[C@@H]2O[C@H]1[C@H]1CN(c3ccc(C#N)c(C(F)(F)F)c3)S(=O)(=O)[C@H]12` [Example 40i, methyl((1S,2R,6R,7S,8S)-4-(4-cyano-3-(trifluoromethyl)phenyl)-3,3-dioxido-10-oxa-3-thia-4-azatricyclo[5.2.1.0^2,6]dec-8-yl)carbamate] registered a Ki at wild type AR of 46 nM. Besides, half-maximal inhibition against androgen receptor (AR) (IC50) required 977 nM.
